From publication PMC11289669, “BAR502/fibrate conjugates: synthesis, biological evaluation and metabolic profile” (Frontiers in Chemistry, 2024)
Where “and” joins values, the source holds several entries; their conditions need not be identical. Equal entries are not always repeated.

Legend:
GPBAR1 = target: T1, GPBAR1 (Homo sapiens, UniProt Q8TDU6); assay: GPBAR1 transactivation (CRE-luciferase reporter) assay in HEK-293T cells; type: cell-based; settings: for Emax: 18 h, read-out: GPBAR1 efficacy (% vs. TLCA); for Emax / GPBAR1 efficacy (% vs. TLCA): transactivation on HEK-293T cells, TLCA 10 μM = 100%; for EC50: transactivation assay, HEK-293T cells
T1 construct: expressed in transfected cells; host or cells: HEK-293T
T1 sequence (Q8TDU6 1-330): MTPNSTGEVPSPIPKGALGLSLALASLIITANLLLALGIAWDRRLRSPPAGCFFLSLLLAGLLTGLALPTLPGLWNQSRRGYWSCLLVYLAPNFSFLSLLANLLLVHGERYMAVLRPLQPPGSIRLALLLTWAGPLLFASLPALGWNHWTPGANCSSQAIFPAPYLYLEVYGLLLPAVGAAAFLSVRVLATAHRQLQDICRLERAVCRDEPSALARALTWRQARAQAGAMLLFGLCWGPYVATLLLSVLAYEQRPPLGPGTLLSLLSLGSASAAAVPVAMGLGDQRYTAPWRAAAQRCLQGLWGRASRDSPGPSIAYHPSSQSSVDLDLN
Procedure: (§1) HepG2 and HEK-293T cells were cultured at 37 °C in minimal essential medium (MEM) and Dulbecco’s Modified Eagle Medium (DMEM) respectively, supplemented with 10% fetal bovine serum, 1% L-glutamine, 100 U/mL penicillin, and 100 μg/mL streptomycin. To investigate FXR-mediated transactivation, the HepG2 cells were transfected with 200 ng of the reporter vector p (hsp27)TK-Luc containing the FXR response element IR1 cloned from the promoter of heat shock protein 27 (hsp27), plus 100 ng pSG5-FXR, 100 ng pSG5-RXR, and 100 ng pGL4.70 Renilla. To evaluate GPBAR1 mediated transactivation, HEK-293T cells were transfected with 200 ng of human pGL4.29 (Promega), a reporter vector containing a cAMP response element (CRE) that drives the transcription of the luciferase reporter gene luc2P, with 100 ng of pCMVSPORT6-human GPBAR1, and with 100 ng of pGL4.70. At 24 h post-transfection, cells were stimulated 18 h with 10 μM TLCA (taurolithocholic acid a GPBAR1 agonist) or CDCA (FXR agonist) and compounds. To calculate the EC50 on FXR and GPBAR1, dose-response curves were performed in HEK-293T cells transfected as described above and then treated with increasing concentrations of compounds (from 0.1 to 50 µM). After treatments, cells were lysed in 100 μL of lysis buffer (25 mM Tris-phosphate, pH 7.8; 2 mM DTT; 10% glycerol; 1% Triton X-100), and 10 μL of cellular lysate was assayed for luciferase activity using the Firfly &Renilla Luciferase assay kit (Biotium). Luminescence was measured using Glomax 20/20 luminometer (Promega). Luciferase activities were assayed and normalized with Renilla activities.

FXR [1] = target: T2, FXR (Homo sapiens, UniProt Q96RI1); assay: AlphaScreen coactivator (SRC-1) recruitment assay on FXR; type: biochemical; settings: for FXR efficacy (% vs. CDCA): AlphaScreen SRC-1 recruitment, compounds at 10 μM, CDCA = 100%
T2 sequence (Q96RI1 262-486 limits assumed): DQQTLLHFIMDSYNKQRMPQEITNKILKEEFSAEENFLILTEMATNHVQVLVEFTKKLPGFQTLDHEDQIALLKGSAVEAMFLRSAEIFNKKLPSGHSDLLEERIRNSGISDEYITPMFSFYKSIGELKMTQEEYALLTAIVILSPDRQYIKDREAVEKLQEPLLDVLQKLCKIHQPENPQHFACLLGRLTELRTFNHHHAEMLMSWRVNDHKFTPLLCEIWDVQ
Procedure: (§2) Compounds’ ability to mediate cofactor recruitment was evaluated by employing AlphaScreen GST Detection Kit (PerkinElmer). Particularly, FXR agonism was evaluated employing 10 nM FXR-LBD GST-fused (Thermo Scientific) and 30 nM of biotinylated SRC1 peptide ([…]) in the presence of 20 μg/mL donor and acceptor beads and in buffer containing 50 mM Tris-HCl (pH7.4), 20 mM KCl, 1 mM DTT, and 0.1% BSA. For PPARα assay, a buffer containing 50 mM MOPS, 50 mM NaF, 0.05 mM CHAPS, and 0.05% BSA (pH = 7.4) was used, and 20 nM PPARα LBD GST fused (Thermo Scientific) and 60 nM of biotinylated SRC1 peptide were employed. Both acceptor and donor beads were added to reach 20 μg/mL final concentration. Incubations were performed in a final volume of 25 μL employing 384 wells Optiplate and Alpha signal was measured with Envision 2,105 (Perkin Elmer) multimode plate reader. For efficacy, compounds were tested at 10 μM for FXR and 50 μM for PPARα.

PPARα = target: T3, PPARα (Homo sapiens, UniProt Q07869); assay: AlphaScreen coactivator (SRC-1) recruitment assay on PPARα; type: biochemical; settings: AlphaScreen SRC-1 recruitment; compounds at 50 µM (footnote); fenofibrate = 100%
T3 construct: 20 nM PPARα LBD GST fused (Thermo Scientific); purchased Thermo Scientific
T3 sequence (Q07869 239-466 limits assumed): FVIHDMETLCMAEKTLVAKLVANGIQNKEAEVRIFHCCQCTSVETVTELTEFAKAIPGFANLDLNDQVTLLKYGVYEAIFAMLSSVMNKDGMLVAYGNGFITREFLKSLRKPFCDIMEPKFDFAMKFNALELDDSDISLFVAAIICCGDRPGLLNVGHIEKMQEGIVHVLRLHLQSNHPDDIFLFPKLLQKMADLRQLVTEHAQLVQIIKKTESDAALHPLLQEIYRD
Procedure: as §2, with “For efficacy, compounds were tested at 10 μM for FXR and 50 μM for PPARα.” left out

FXR [2] = target: T4, FXR (Homo sapiens, UniProt Q96RI1); assay: FXR transactivation (luciferase reporter) assay in HepG2 cells; type: cell-based; settings: for EC50: HepG2 cells
T4 construct: expressed in transfected cells; host or cells: HepG2 (the text says EC50 dose-response curves were run in HEK-293T)
T4 sequence (Q96RI1 1-486): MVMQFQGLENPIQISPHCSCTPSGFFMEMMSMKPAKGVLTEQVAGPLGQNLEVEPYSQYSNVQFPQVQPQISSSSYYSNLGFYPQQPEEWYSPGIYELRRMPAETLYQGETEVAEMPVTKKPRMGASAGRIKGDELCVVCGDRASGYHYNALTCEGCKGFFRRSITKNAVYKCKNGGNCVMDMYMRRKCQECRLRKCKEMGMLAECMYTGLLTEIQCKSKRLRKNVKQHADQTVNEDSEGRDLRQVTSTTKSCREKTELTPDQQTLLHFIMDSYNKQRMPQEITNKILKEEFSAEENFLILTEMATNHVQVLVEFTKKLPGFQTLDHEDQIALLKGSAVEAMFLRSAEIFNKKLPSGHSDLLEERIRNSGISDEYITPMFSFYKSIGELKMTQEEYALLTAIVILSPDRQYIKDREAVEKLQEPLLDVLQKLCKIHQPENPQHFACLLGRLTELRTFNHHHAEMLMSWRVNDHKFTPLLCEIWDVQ
T4 sequence (P19793 1-462 partner): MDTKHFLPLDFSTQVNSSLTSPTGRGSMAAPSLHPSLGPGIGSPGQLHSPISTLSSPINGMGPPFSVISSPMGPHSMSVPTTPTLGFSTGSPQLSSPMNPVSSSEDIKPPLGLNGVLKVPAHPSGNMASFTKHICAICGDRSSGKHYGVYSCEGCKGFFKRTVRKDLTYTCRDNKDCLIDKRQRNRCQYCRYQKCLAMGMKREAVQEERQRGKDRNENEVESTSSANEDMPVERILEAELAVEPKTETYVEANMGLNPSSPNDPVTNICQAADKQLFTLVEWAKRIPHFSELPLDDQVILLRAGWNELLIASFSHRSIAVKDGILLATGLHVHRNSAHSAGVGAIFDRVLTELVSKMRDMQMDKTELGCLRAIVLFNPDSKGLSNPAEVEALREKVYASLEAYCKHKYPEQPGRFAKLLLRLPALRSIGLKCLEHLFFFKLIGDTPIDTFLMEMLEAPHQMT
Procedure: as §1

FXR efficacy vs. CDCA (transactivation) (FXR [2])	SMILES	Emax (GPBAR1)	FXR efficacy (% vs. CDCA) (FXR [1])	PPARα efficacy (% vs. fenofibrate) (PPARα)	EC50 (FXR [2])	EC50 (FXR [1]; AlphaScreen coactivator recruitment, FXR with SRC-1)	EC50 (GPBAR1)	GPBAR1 efficacy (% vs. TLCA) (GPBAR1)
	CC[C@@H]1C2C[C@H](OC(=O)C(C)(C)Oc3ccc(Cl)cc3)CC[C@]2(C)C2CC[C@@]3(C)C(CC[C@@H]3[C@H](C)CCO)C2[C@@H]1O (stereo partly drawn) [Compound 2]	46 ± 16%						
	CC[C@@H]1C2C[C@H](O)CC[C@]2(C)C2CC[C@@]3(C)C(CC[C@@H]3[C@H](C)CCOC(=O)C(C)(C)CCCOc3cc(C)ccc3C)C2[C@@H]1O (stereo partly drawn) [Compound 7]	14 ± 1.3%	4.1 ± 0.6%	22 ± 18%				
	CC[C@@H]1C2C[C@H](OC(=O)C(C)(C)CCCOc3cc(C)ccc3C)CC[C@]2(C)C2CC[C@@]3(C)C(CC[C@@H]3[C@H](C)CCOC(=O)C(C)(C)CCCOc3cc(C)ccc3C)C2[C@@H]1O (stereo partly drawn) [Compound 9]	28.5 ± 0.4%	5.1 ± 1.9%					
	CC[C@@H]1C2C[C@H](OC(=O)C(C)(C)Oc3ccc(Cl)cc3)CC[C@]2(C)C2CC[C@@]3(C)C(CC[C@@H]3[C@H](C)CCOC(=O)C(C)(C)Oc3ccc(Cl)cc3)C2[C@@H]1O (stereo partly drawn) [Compound 3]	101%	48% and 48.0 ± 5.5%	27 ± 10%	25 ± 0.01 µM	17.9 ± 2.6 µM	1.8 ± 0.35 µM	101.0 ± 0.4%
	CC[C@@H]1C2C[C@H](OC(=O)C(C)(C)Oc3ccc(C(=O)c4ccc(Cl)cc4)cc3)CC[C@]2(C)C2CC[C@@]3(C)C(CC[C@@H]3[C@H](C)CCO)C2[C@@H]1O (stereo partly drawn) [Compound 5]	40 ± 0.7%		6.6 ± 1.9%				
	CC[C@@H]1C2C[C@H](O)CC[C@]2(C)C2CC[C@@]3(C)C(CC[C@@H]3[C@H](C)CCOC(=O)C(C)(C)Oc3ccc(C(=O)c4ccc(Cl)cc4)cc3)C2[C@@H]1O (stereo partly drawn) [Compound 4]	41 ± 3%	14.0 ± 1.8%	13 ± 3%				
	CC[C@@H]1C2C[C@H](OC(=O)C(C)(C)CCCOc3cc(C)ccc3C)CC[C@]2(C)C2CC[C@@]3(C)C(CC[C@@H]3[C@H](C)CCO)C2[C@@H]1O (stereo partly drawn) [Compound 8]	29.4 ± 5.1%		5.3 ± 0.8%				
457%	CCC1C(O)C2C3CCC(C(C)CC(=O)O)C3(C)CCC2C2(C)CCC(O)CC12 (stereo not drawn) [BAR505, reference compound]			40%	1.9 ± 0.14 µM		3.2 ± 1.1 µM	103.6%
	CC[C@@H]1C2C[C@H](OC(=O)C(C)(C)Oc3ccc(C(=O)c4ccc(Cl)cc4)cc3)CC[C@]2(C)C2CC[C@@]3(C)C(CC[C@@H]3[C@H](C)CCOC(=O)C(C)(C)Oc3ccc(C(=O)c4ccc(Cl)cc4)cc3)C2[C@@H]1O (stereo partly drawn) [Compound 6]	30 ± 17%		1.7 ± 0.5%				
